# Measured values reported in patent EP3381905A1, “NOVEL ANTIVIRAL COMPOUNDS” (priority 2017, dated 2018).
# Assays:
# HAd-C5-wt virus = assay: adenoviral early gene expression by real-time PCR; type: cell-based, adenovirus; conditions: U2OS cells, 5 µM, 4 hours post-infection, vs vehicle
# U2OS cells = assay: cytotoxicity, CellTiter-Glo Luminescent Cell Viability Assay; conditions: for cytotoxicity profile (normalized cell viability): 250 nM to 50 µM, 36 h (Figure 7)
# [1] = test system: MARV VP40 with the late domain motif of Ebola virus (PTAPPEY) VP40 (VP40ELD); type: cell-based, Marburg virus
# [2] = test system: GFP expressing HAd-C5 vector; assay: fluorescent plaque forming assay (adenoviral propagation / virus spread); type: cell-based, adenovirus
# HAd-C5 = assay: adenovirus genome nuclear import (nuclear protein VII staining, confocal microscopy); type: cell-based; conditions: U2OS cells, 5 µM, 2500 pp/cell, 2 hours post-infection, vs DMSO
structure (smiles),measurement,setting,value
Clc1ccc(CSC(Cn2ccnc2)c2ccc(Cl)cc2Cl)cc1 (stereo not shown) [Sulconazole],reduction of MARV titers (TCID50),MARV,1-2 log
same,"early viral genes expression (E1A, E1B, E4 orf6/7)",HAd-C5-wt virus,significant reduction of early viral genes expression
same,cytotoxicity,"U2OS cells; 5 µM, 36 h",not cytotoxic
same,VP40 VLP release,[1],inhibit
same,plaque size (adenovirus virus propagation),"[2]; 5 µM, HEK293 cells, 0.1 pp/cell HAd-C5-GFP, six days after infection, vs DMSO (Example 3, Figure 1, P<0.0001)",significant reduced plaque size
same,nuclear accumulation of viral genomes (protein VII),HAd-C5,significantly reduces the nuclear accumulation of viral genomes
"Clc1ccc(-c2ccc(Cn3ccnc3)c(-c3ccc(Cl)cc3Cl)c2)c(Cl)c1 [CT2-10, 1-((2,2"",4,4""-Tetrachloro-[1,1':3',1""-terphenyl]-4'-yl)methyl)-1H-imidazole]",cytotoxicity profile (normalized cell viability),U2OS cells,cytotoxicity profiles similar to Sulconazole
Nc1ccn(C[C@@H](CO)OCP(=O)(O)O)c(=O)n1 [Cidofovir],inhibition of adenoviral propagation (plaque size),"[2]; 10 µM and 20 µM (Example 8, Figure 6)",did not show significant inhibition
"Clc1ccc(-c2cc(-n3ccnc3)c(-c3ccc(Cl)cc3Cl)o2)c(Cl)c1 [CT2-13, 1-(2,5-bis(2,4-Dichlorophenyl)furan-3-yl)-1H-imidazole]",cytotoxicity profile (normalized cell viability),U2OS cells,cytotoxicity profiles similar to Sulconazole
Clc1ccc(CO/N=C(\Cn2ccnc2)c2ccc(Cl)cc2Cl)c(Cl)c1 [Oxiconazole],cytotoxicity profile (normalized cell viability),U2OS cells,cytotoxicity profiles similar to Sulconazole
